Test results reported in publication PMC7821381, “Multi-Targeted Anticancer Activity of Imidazolate Phosphane Gold(I) Compounds by Inhibition of DHFR and TrxR in Breast Cancer Cells” (Frontiers in Chemistry, 2021).
Where two headings read alike, the source gives them in different places.

Assays:
[1] = system: DNA; design: method as in Nafisi et al., 2007; settings: ref Nafisi et al., 2007; cited from earlier work
[2] = system: SKBR3 cells; experiment: MTT cell viability assay on SKBR3 cells; format: cell-based, human
Description: (§1) Human MDA-MB-231 (ER–/PR–/HER2–) and SK-BR-3 (ER–/PR–/HER2+) cells were obtained from American Type Culture Collection (Rockville, MD) and cultured in Dulbecco's Modified Essential Medium (DMEM, Gibco, Life Technologies) supplemented with 10% fetal bovine serum (FBS, Gibco, Life Technologies) and 1% penicillin–streptomycin (Gibco, Life Technologies). A17 cells were established from a spontaneous lobular carcinoma that arose in an FVB/neuT mouse (Galiè et al., [2005]), and maintained in DMEM plus 20% FBS and 1% penicillin-streptomycin. Cells were cultured at 37°C under humidified atmosphere with 5% CO2.
(§2) Stock solutions were prepared for each gold(I) compound (50 mM) using dimethyl sulfoxide (DMSO) (Sigma-Aldrich) as solvent. The effects of gold(I) compounds on SKBR3, A17 and MDA-MB231 cells viability were evaluated by seeding, respectively, 10, ^*10^3, 2.5 ^*10^3, 7, ^*10^3 cells/well in 96 wells plates in complete medium (DMEM supplemented with FBS) and compared to those of cisplatin. The day after, fresh medium containing vehicle alone (DMSO, 1 % v/v final concentration) or increasing concentrations of each compound ranging from 0.1 to 100 μM was added. Cell viability was determined using a MTT [3-(4,5-dimethylthiazol-2-yl)-2,5-diphenyl-2H-tetrazolium bromide Sigma Aldrich, St. Louis, MO] assay, which is based on the conversion of MTT to formazan crystals by mitochondrial enzymes, after 24, 48, and 72 h. The formazan deposits were dissolved in DMSO and the absorbance of each well was measured at 540 nm in Multiskan Ascent 96/384 Plate Reader. Each drug concentration was evaluated with 8 replicates and each experiment was repeated three times. At the end of the experiments a dose–response curve was plotted, and the IC50 concentrations were determined. Statistical analysis was performed using One-Way ANOVA analysis of variance followed by Dunnett's Multiple Comparison Test. Quantitative data are presented as means ± SEM. Differences were considered significant at ^*P ≤ 0.0332; ^**P ≤ 0.0021; ^***P ≤ 0.0002; ^****P ≤ 0.0001.
(§3) IC50 values were calculated for each of the cell lines tested, by fitting the concentration-effect curves data obtained in the three experiments with the sigmoid-Emax model using nonlinear regression, weighted by the reciprocal of the square of the predicted effect.

[3] = system: SKBR3 cells; design: method as in Serova et al., 2006; settings: SKBR3, 24 h; ref Serova et al., 2006; cited from earlier work
[4] = system: MDA-MB231 cells; design: method as in Gambini et al., 2018; settings: MDA-MB231, 48 h; ref Gambini et al., 2018; cited from earlier work
[5] = system: A17 cells; design: method as in Gambini et al., 2018; settings: A17, 24 h; ref Gambini et al., 2018; cited from earlier work
[6] = system: A17 cells; experiment: MTT cell viability assay on A17 cells; format: cell-based, murine; settings: A17, 24 h, ± S. D.
Description: as §1
as §2, with “Statistical analysis was performed using One-Way ANOVA analysis of variance followed by Dunnett's Multiple Comparison Test.” left out, “Differences were considered significant at ^*P ≤ 0.0332; ^**P ≤ 0.0021; ^***P ≤ 0.0002; ^****P ≤ 0.0001.” left out
as §3

[7] = Stability in physiological condition; format: physicochemical
[8] = system: MDA-MB231 cells; experiment: MTT cell viability assay on MDA-MB231 cells; format: cell-based, human; settings: MDA-MB231, 24 h, ± S. D.
Description: as §1
as §2, with “Statistical analysis was performed using One-Way ANOVA analysis of variance followed by Dunnett's Multiple Comparison Test.” left out, “Differences were considered significant at ^*P ≤ 0.0332; ^**P ≤ 0.0021; ^***P ≤ 0.0002; ^****P ≤ 0.0001.” left out
as §3

For `CN(C)c1ccc2nc3ccc(=[N+](C)C)cc-3sc2c1` [methylene blue], the “binding constant of classical intercalators to DNA” value (“binding constant” below) [1] is listed as 21300 M⁻¹.

With `O=C(O)c1ccccc1[PH]([Au][Cl])(c1ccccc1)c1ccccc1` [Compound 1, 2-benzoic-diphenylphosphanegold chloride] the “cytotoxic activity in MTT screening” value ([2]; SKBR3 cells, 72 h (Figure 1S) and 48 h (Figure 2)) was “did not show relevant cytotoxic activity”.

For `CC[n+]1c(-c2ccccc2)c2cc(N)ccc2c2ccc(N)cc21` [ethidium bromide], the “binding constant” value [1] is listed as 65800 M⁻¹.

For `CN(C)c1ccc2cc3ccc(N(C)C)cc3nc2c1` [acridine orange], the “binding constant” value [1] is listed as 26900 M⁻¹.

In the case of `N.N.[Cl][Pt][Cl]` [Cisplatin], the IC50 [3] is listed as 43 ± 7 µM, the IC50 [4] is listed as 50.5 ± 2 µM and the IC50 [5] is listed as 15.9 ± 1.17 µM.

In the case of “(3,5-dintropyrazolyl-1H-gold(I)-(triphenylphosphane) [Compound 4]”, the IC50 [6] is reported as 11 ± 1 µM, the IC50 ([2]; SKBR3, 24 h, ± S. D.) is reported as 12.3 ± 1.1 µM and the “stability in physiological condition” value [7] is reported as “less stable in physiological condition”. The IC50 [8] was 12.8 ± 0.7 µM.
